Like-named read-outs stand apart in the source and are kept apart here. Where a SMILES comes first, the peptide text is derived from it.

The conditions of series [1]: mouse, in vivo, 1 mg/kg.
The test system of series [2] is NCI/ADR-RES (multi-drug resistant ovarian adenocarcinoma) cells. The series can be described thus: cells. It counts as cell-based. Particulars: 72 h.
Series [3] has as its system A549 (lung carcinoma) cells. The series can be described thus: MTT cytotoxicity, A549. It counts as cell-based. To be noted: Homo sapiens, A549, 72 h.
The conditions of series [4]: mouse; cited from earlier work.
For series [5] the following is noted: human; cited from earlier work.

With `CC(=O)O[C@H]1C(=O)[C@@]2(C)[C@H]([C@H](OC(=O)c3ccccc3)[C@]3(O)C[C@H](OC(=O)[C@H](O)[C@@H](NC(=O)c4ccccc4)c4ccccc4)C(C)=C1C3(C)C)[C@]1(OC(C)=O)CO[C@@H]1C[C@@H]2O` [PTX, Paclitaxel], in series [1], the “tolerability at maximum soluble concentration” value was “well tolerated”. Besides, the half-maximal inhibitory concentration (IC50) in series [2] (Homo sapiens, NCI/ADR-RES) turned out to be 9.7 µM; in series [3], 0.0036 µM. Moreover, in series [2] (NCI/ADR-RES, MTT), the “decrease in activity compared to the peptide conjugate” value was about 2 fold.

Molecule `CC(C)[C@H](NC(=O)[C@H](CCCCN)NC(=O)[C@@H](NC(=O)[C@H](CCCCN)NC(=O)[C@@H](NC(=O)[C@H](CCCCN)NC(=O)[C@@H](NC(=O)[C@@H]1CCCN1C(=O)[C@H]1CCCN1C(=O)[C@@H](NC(=O)[C@H](CCCCN)NC(=O)[C@@H](NC(=O)[C@H](CCCCN)NC(=O)[C@@H](NC(=O)[C@H](CCCCN)NC(=O)[C@@H](NC(=O)[C@@H](N)CCCCN)C(C)C)C(C)C)C(C)C)C(C)C)[C@@H](C)O)C(C)C)C(C)C)C(=O)N[C@@H](CCCCN)C(N)=O` [SVS-1] (HELM PEPTIDE1{K.V.K.V.K.V.K.V.[dP].P.T.K.V.K.V.K.V.K.[am]}$$$$V2.0) had an IC50 in series [2] of 3.21 µM.

KKVVFKVKFKK-NH2 [KSLK]: the reported half-life in series [4] is 6 min.

YGRKKRRQRRR-NH2 [TAT]: in series [5], the reported half-life was 3.5 min.

These data come from PMC4458427 (Journal of controlled release : official journal of the …, 2015).
